Results published in patent US20010041743A1, “Use of cyclopentenone derivatives for bone and periodontal regeneration” (priority 2000, published 2001).
“Also recorded” adds a separate entry of the source.

How the values were obtained:
[1] = test system: transcortical defects in rat femurs; assay: Titanium enclosure model of bone regeneration (histomorphometry of cortical defect); assay type: in vivo; details: for percentage of new bone formation in cortical defect area (bone growth): rat femur, control value 40%
Procedure: (§1) In one study, bone regeneration and gene expression was assayed using a titanium enclosure model, as described in Example 1 (FIG. 1). Briefly, transcortical defects were created surgically in rat femurs. A collagen sponge, loaded with a varying concentration of Δ^12PGJ2 was applied to each defect. The collagen sponge was secured by placement of the titanium enclosure, which served as a rigid and fixed geometry cell exclusion barrier. Animals were sacrificed at 10 days and bone tissue sections were prepared for immunohistology to quantify growth factor expression. Tissue sections from treated animals were also analyzed morphometrically to assess de novo bone formation of the defect areas.
Titanium enclosures were prepared by trimming and carving 0.1 mm thickness titanium plate to half cylindrical shape which had 8×1.5×2 mm in length, height, and width respectively. Both ends of the enclosures were sealed with surgical grade, self curing acrylic resin to form a closed half cylinder which is open only in the sagittal direction. The enclosures were then washed in an ultrasonic cleaning machine and autoclaved to sterilize and to create a titanium oxide surface prior to use.
Twenty-eight male Wistar rats, aged 8 weeks and weighing 350-400 g were randomly separated into 4 groups that received varying doses of Δ^12PGJ2. Two rats were housed in each cage with free access to normal laboratory diet and water ad libitum. After 7 days of acclimatization, the animals were initially anesthetized intramuscularly with Sodium pentobarbital (Nembutal sodium solution, Abbott Laboratories, Chicago, Ill.) at a dosage of 75 mg/kg of body weight. The area of intended surgery was shaved and disinfected using 90% ethyl alcohol. After pupillary reflex was inhibited, a 3-cm incision was made through skin and muscle parallel to the long axis over the dorsal aspect of both left and right femoral bone. The periosteum was incised and removed from the surface of the bone, creating an exposed area of sufficient size to place the open face of the cylindrical enclosure directly on the bone surface. Subsequently, a 5×1.5 mm transcortical defect was made through the cortical bone into the bone marrow at the midshaft region using round and cylindrical steel burs and a low speed micromotor machine. A sufficiently sterile 0.9% saline solution was used as a coolant to avoid heat-induced necrosis of surrounding bone. The femoral bone on one side of the animal was randomly chosen for treatment with Δ^12PGJ2, and the contralateral side was used as a control. FIG. 1 depicts a schematic diagram of the titanium enclosure model.
(§2) Δ^12PGJ2 (Cayman Chemical, Ann Arbor, Mich.) was diluted in 0.9% NaCl, pH 7.2, to the final concentration of 1×10^−3, 1×10^−5, 1×10^−7, and 1×10^−9 M. An absorbable collagen sponge (Colla-Tec Inc. Plainsboro, N.J.) 5×1.5 mm dimensions was used as a carrier. 10 μl of each Δ^12PGJ2 solution were loaded into the collagen carrier and then the carrier was placed inside the half cylindrical titanium enclosure. This provided a dosage of 3.0 μg, 30 ng, 0.3 ng, and 3 pg Δ^12PGJ2 in each of five standardized defects. The remaining volume inside the enclosure was filled with blood collected from the defect. The enclosure was inverted, placed over the defect, and stabilized by circumosseous wiring around the femoral bone using #010 orthodontic wire. […] The animals were monitored every day after surgery for indication of post-operative reactions. […]

PDGF-B = assay: Immunohistochemistry of PDGF-B expression in the titanium enclosure model; assay type: in vivo, rat; details: for PDGF-B expression in the area of the defect: 10 days
Procedure: as §1, §2
The area and average intensity of positive immunostaining were measured using a microscope connected to a computerized video digital system (JAVA video analysis software, Jandel Scientific, Corte Madera, Calif.) at a magnification of 100×. Three to five sections were analyzed for each femur and the data from all sections were pooled to reflect a mean value for each bone defect. […]

BMP-6 = assay: Immunohistochemistry of BMP-6 expression in the titanium enclosure model; assay type: in vivo, rat; details: no concentration stated
Procedure: as §1
(§3) Δ^12PGJ2 (Cayman Chemical, Ann Arbor, Mich.) was diluted in 0.9% NaCl, pH 7.2, to the final concentration of 1×10^−3, 1×10^−5, 1×10^−7, and 1×10^−9 M. An absorbable collagen sponge (Colla-Tec Inc. Plainsboro, N.J.) 5×1.5 mm dimensions was used as a carrier. […] The animals were monitored every day after surgery for indication of post-operative reactions. […]
(§4) The area and average intensity of positive immunostaining were measured using a microscope connected to a computerized video digital system (JAVA video analysis software, Jandel Scientific, Corte Madera, Calif.) at a magnification of 100×. […]

PDGF-A = assay: Immunohistochemistry of PDGF-A expression in the titanium enclosure model; assay type: in vivo, rat; details: no concentration stated
Procedure: as §1, §3, §4

BMP-2 = assay: Immunohistochemistry of BMP-2 expression in the titanium enclosure model; assay type: in vivo, rat; details: no concentration stated
Procedure: as §1, §3, §4

[2] = test system: titanium implants placed in the rat femur; assay: Titanium implant model of bone regeneration (bone height and width around implant); assay type: in vivo; details: for bone growth (height and width) around implant: versus control vehicle
Procedure: In a second study, titanium implants were placed in the rat femurto mimic human dental implant placement, as described in Example 2. Bone healing and regeneration around the implants was assessed following treatment with implants loaded with Δ^12PGJ2.
Six male Wistar rats were anesthetized as described in Example 1 for the placement of 4 titanium implants in each animal. Implants were fabricated from surgical grade titanium 1.5 mm in diameter, 2.5 mm in length with machined threads, cleaned bysonication and autoclaved prior to use. Implant sites were prepared with cooling using a dental high speed hand piece. One test and one control implant site were prepared for placement of 5 μl of test or control solution, followed by implant placement. Control implants comprised vehicle only (10% carboxymethylcellulose in normal saline). For test sites, 10^−3M or 10^−5M Δ^12PGJ2 was applied to the site following placement of the implant. Animals were monitored for 3 or 8 weeks following implantation.
Femur bones were collected and fixed in 4% paraformaldehyde, 0.1 M phosphate buffer. Samples were cleared through sequential washings of graded alcohol followed by xylene. Bones were embedded in methacrylate and sectioned with a low speed diamond saw and stained with Toluidine Blue. Two different quantitative measurements were derived from each implant to measure the amount of bone regenerated around each implant. These measurements represent the bone height from the endosteal surface to the most apical bone contact area of the implant and the mean width of that same bone calculated using three measurement references, including the endosteal surface (ES), ES +130 microns, and ES +260 microns.

[3] = treated versus control injuries, 10^−3M or 10^−5M applied to site

**Q.** Which “bone volume following administration (FIG. 2)” value [1] does the source give for CCCCCC(O)CC=C1C(=O)C=CC1C/C=C\CCCC(=O)O (stereo not drawn) [Δ^12PGJ2, Δ^12-13,14-dihydro-9-deoxy-Δ^9-prostaglandin D2] here?
**A.** increase in bone volume

**Q.** And the “percentage of new bone formation in cortical defect area (bone growth)” value ([1]; 30 ng dose in collagen sponge, 10 days)?
**A.** 53 % volume

**Q.** And the “increase in total bone area following treatment” value ([1]; 3.0 μg and 30 ng doses versus control, 10 days)?
**A.** ~33%

**Q.** What about the “percentage of new bone formation in cortical defect area (bone growth)” value ([1]; 3.0 μg dose in collagen sponge, 10 days) of the same compound?
**A.** 54 % volume

**Q.** And the “percentage of new bone formation, dose dependence” value ([1]; doses 3 pg to 3.0 μg, 10 days)?
**A.** increased in a dose-dependent manner

**Q.** And the “PDGF-B expression in the area of the defect” value (PDGF-B; 10^−3M)?
**A.** significant increase

**Q.** And the “PDGF-B expression in the area of the defect” value (PDGF-B; 10^−5M)?
**A.** significant increase

**Q.** And the “PDGF-B expression / induction (general statement)” value (PDGF-B; no concentration stated)?
**A.** increase in PDGF-B expression; also recorded: potent and dose-dependent inducer

**Q.** And the “BMP-6 expression / induction” value (BMP-6)?
**A.** increase in BMP-6 expression; also recorded: potent and dose-dependent inducer

**Q.** What about the PDGF-A induction (PDGF-A) of the same compound?
**A.** potent and dose-dependent inducer

**Q.** And the BMP-2 induction (BMP-2)?
**A.** potent and dose-dependent inducer

**Q.** And the “bone growth (height and width) around implant” value ([2]; 3 weeks after administration)?
**A.** Significantly increased bone growth

**Q.** And the “bone growth (height and width) around implant” value ([2]; 8 weeks after administration)?
**A.** Significantly increased bone growth

**Q.** And the “bone height around implant” value [2, 3]?
**A.** significantly increased

**Q.** What about the “bone width around implant” value [2, 3] of the same compound?
**A.** significantly increased
